Source: patent US20250134897A1, “PREPARATION OF IS[…] KETO[…] METHODS OF HYPERPO[…] SIGNAL AMP[…] […] (SABRE)” (The United States of America,as represented by the …, priority 2022, published 2025)

Tests used:
[1] = 13C-1 spin-lattice relaxation time (T1) at 3 T MRI system; type: physicochemical; conditions: 3 T MRsolution MRI system, solutions of DPBS with EDTA
[2] = SABRE-SHEATH 13C hyperpolarization, single-scan 13C NMR; type: physicochemical; conditions: 10 mM substrate, 45 mM DMSO, 7.8 mM Ir-IMes catalyst in methanol-d4; 55 s p-H2 bubbling at BT=−0.2 μT; ~50% p-H2; acquired after transfer to 1 T
Excerpt: Ultra-high-purity hydrogen gas (Airgas) was fed into a Para-Hydrogen (pH2) flow cryostat (Xeus technology LTD) and enriched to about 50% parahydrogen in the presence of a spin-exchange catalyst (Fe2O3) at liquid nitrogen temperature (77 K). The pH2 flow was directed via PTFE tubing to a mass flow controller (MFC, Sierra Instruments SmartTrak 100 series) set at 90 ssc/m and directed to a conventional 5 mm NMR tube (Norell) to allow bubbling through the sample. The entire pH2 line was pressurized to 96 psi.
At least once a day, the shield was degaussed using internal coils driven by a Variac. The solenoid has 41 mm diameter (40 mm core, 20 cm long windings with 220 turns AWG20 (0.9 mm) Cu wire and with 220Ω resistor in series. The solenoid coil was driven by commercial 1.5V batteries with a variable-resistance decade box in series to provide finer control of the internal magnetic field inside the shield. Typical values of the field within the shield were between […], with SABRE SHEATH experiments typically between 0.5 μT and 0.8 μT in the sample region. The values were monitored between SABRE experiments using a Lakeshore Cryotronics Gaussmeter (Model No. 475 DSP with HMMA-2512-VR Hall Probe.
NMR experiments were performed using a 1 T Magritek Spinsolve benchtop NMR spectrometer. […]

Row | SMILES | T1 after flip angle correction (spin-lattice relaxation time) [1] | apparent T1 (spin-lattice relaxation time) ([1]; without flip angle correction) | polarization P(13C) [2]
1 | O=C(O)CCC(=O)C(=O)O [2-Oxopentanedioic-5-^12C-1-^13C acid] | 63.0 ± 0.835 s | 32.1 ± 0.824 s | –
2 | O=C(CC[12C](=O)[O-])[13C](=O)[O-].[Na+].[Na+] [sodium [1-^13C] Ketoglutarate, sodium 2-Oxopentanedioate-5-^12C-1-^13C] | – | – | ~0.24%
